Test system: plaque
Settings: in vivo

CC(=O)[O-].CC(=O)[O-].[Zn+2] [zinc acetate]
effect on plaque in hard-to-reach places: with high efficiency
